{"source": "patent US20240050409A1", "about": "“Methods and Compositions for Treating Psychotic Disorders” (SOUND PHARMACEUTICALS INCORPORATED, priority 2014, published 2024)", "tested_on": "8-oxo-dG staining in the PFC of NVHL rats", "test": "8-oxo-dG labeling (DNA oxidation) in PFC of NVHL rats", "format": "in vivo, Sprague-Dawley rats", "description": "To assess oxidative stress, DNA oxidation with 8-oxo-7,8-dihydro-20-deoxyguanine (8-oxo-dG) labeling was quantified. […] 3-NT indicates nitration of proteins due to oxidative and nitrosative stress (Radi, 2004), and its increase in NVHL rats was prevented by NAC treatment during development (as shown in FIGS. 9A and 9B). […] A possible explanation for the levels of oxidative stress detected in the adult PFC following an NVHL is the reduced glutamatergic input from ventral hippocampus during development, as blocking NMDA receptors induces oxidative stress in PVI (Behrens et al., 2007).\nTo determine the types of interneurons expressing oxidative stress in NVHL rats, 8-oxo-dG with PV, calbindin (CB) and calretinin (CR) was co-labeled. […] About 50% of PVI were co-labeled with 8-oxo-dG, indicating oxidative stress is pervasive in this cell population. A marker of PVI maturation is Wisteria Floribunda agglutinin (WFA), a lectin that recognizes the perineuronal nets (PNN) enwrapping mature cortical PVI. […] PVI may be highly exposed to increased oxidative stress because they make up the majority of fast-spiking interneurons and their high energy metabolism may generate more reactive oxygen species than non-fast spiking neurons.\nAnimals: Timed-pregnant Sprague-Dawley rats were obtained at gestational days 13-15 from Charles River (Wilmington, MA) and were individually housed with free access to food and water in a temperature- and humidity-controlled environment with a 12:12h light/dark cycle (lights on at 7:00 AM). When pups reached P5, half of the dams received NAC in their drinking water. Pups were left undisturbed until P7-9 when healthy offspring were randomly separated and received either NVHL or sham surgery. At P21, male and female pups were either transcardially perfused with 4% paraformaldehyde for immunocytochemistry or weaned and housed in groups of two to three, counterbalanced across lesion status. NAC treatment lasted throughout adolescence until P50. After reaching adulthood (>P60), animals were either perfused with 4% paraformaldehyde for immunocytochemistry, perfused with artificial cerebrospinal fluid (aCSF) for slice electrophysiology, utilized for in vivo intracellular recordings, or tested for PPI or MMN.\nNeonatal ventral hippocampal lesion surgery: Between P7 and P9, pups (15-20 g) received either an excitotoxic lesion of the ventral hippocampus (NVHL) or sham procedure, as previously described (Chambers and Lipska, 2011). Pups were anesthetized with hypothermia and secured to a Styrofoam platform attached to a stereotaxic frame (David Kopf Instruments, Tujunga, CA). […]"}
{"molecule": "CC(=O)N[C@@H](CS)C(=O)O", "note": "[NAC, N-acetyl cysteine]", "values": [{"measurement": "effect on 8-oxo-dG labeling in PV interneurons", "setting": "NVHL rats, developmental treatment", "result": "prevented"}, {"measurement": "effect on increase in 8-oxo-dG staining in PFC", "setting": "P21 NVHL rats, drinking water 900 mg/l from P5", "result": "completely prevented"}, {"measurement": "effect on increase in 8-oxo-dG in PFC", "setting": "P61 NVHL rats, drinking water 900 mg/l, P5 to P50", "result": "prevented"}, {"measurement": "multiple markers of oxidative stress", "setting": "adult NVHL rats, juvenile treatment, to levels comparable to control rats", "result": "decreased"}]}
